We go through 50 compounds from patent publication US20220041641A1, “QUATERNARY AMMONIUM SALTS AS INHIBITORS OF TRIMETHYLAMINE PRODUCTION” (Senda Biosciences, Inc., priority 2018, published 2022).

Counter-ions that a name gives are not always drawn.

Sequence of CutC from Proteus mirabilis (B4EYG1 entry or part of it): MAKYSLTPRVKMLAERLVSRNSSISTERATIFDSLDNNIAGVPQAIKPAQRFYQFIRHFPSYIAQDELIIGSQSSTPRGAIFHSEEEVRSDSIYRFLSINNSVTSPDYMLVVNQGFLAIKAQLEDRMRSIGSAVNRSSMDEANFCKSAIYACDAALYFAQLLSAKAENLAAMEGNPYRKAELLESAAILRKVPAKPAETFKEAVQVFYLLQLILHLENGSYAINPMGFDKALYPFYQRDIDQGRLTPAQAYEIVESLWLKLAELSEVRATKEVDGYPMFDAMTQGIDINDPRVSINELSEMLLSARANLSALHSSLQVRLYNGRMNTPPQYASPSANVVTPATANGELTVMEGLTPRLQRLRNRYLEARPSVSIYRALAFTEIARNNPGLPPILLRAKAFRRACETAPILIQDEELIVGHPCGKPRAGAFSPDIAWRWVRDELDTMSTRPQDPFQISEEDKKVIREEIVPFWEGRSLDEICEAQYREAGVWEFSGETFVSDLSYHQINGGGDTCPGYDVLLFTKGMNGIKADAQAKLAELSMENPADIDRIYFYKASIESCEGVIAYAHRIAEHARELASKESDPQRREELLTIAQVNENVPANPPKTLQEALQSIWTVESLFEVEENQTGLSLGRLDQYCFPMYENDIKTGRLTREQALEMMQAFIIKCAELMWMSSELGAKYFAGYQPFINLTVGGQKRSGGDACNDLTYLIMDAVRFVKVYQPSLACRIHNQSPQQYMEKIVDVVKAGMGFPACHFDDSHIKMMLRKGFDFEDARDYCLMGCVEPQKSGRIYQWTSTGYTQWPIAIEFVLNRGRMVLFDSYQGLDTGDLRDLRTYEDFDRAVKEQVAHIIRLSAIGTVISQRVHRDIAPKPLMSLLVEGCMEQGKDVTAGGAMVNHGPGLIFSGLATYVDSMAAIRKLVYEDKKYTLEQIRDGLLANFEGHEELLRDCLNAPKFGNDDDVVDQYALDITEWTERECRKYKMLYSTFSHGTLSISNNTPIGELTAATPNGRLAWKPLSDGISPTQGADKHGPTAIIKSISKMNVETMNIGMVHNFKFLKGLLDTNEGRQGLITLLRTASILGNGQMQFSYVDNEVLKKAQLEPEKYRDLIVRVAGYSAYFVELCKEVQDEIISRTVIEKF
Sequence of CutC from Proteus mirabilis (B4EYG0 entry or part of it, further chain): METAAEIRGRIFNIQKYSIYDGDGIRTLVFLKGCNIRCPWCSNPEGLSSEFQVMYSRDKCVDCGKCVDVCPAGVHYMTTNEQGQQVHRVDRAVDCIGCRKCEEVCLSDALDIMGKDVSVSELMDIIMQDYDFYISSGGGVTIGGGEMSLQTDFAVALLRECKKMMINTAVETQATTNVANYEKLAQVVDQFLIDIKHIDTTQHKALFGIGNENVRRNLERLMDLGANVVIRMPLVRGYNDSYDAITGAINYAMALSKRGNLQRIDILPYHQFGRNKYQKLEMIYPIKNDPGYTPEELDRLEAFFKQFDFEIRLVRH

The target in one test is CutC from Proteus mirabilis (Proteus mirabilis, UniProt B4EYG1). In words: Cell-based assay for TMA production from a native producer (P. mirabilis). Particulars: d9-TMA from 1 mM d9-choline, 5 h, 37° C.; value 10 given when no fit or % TMA remaining at 10 μM higher than 15%; read-out: Average IC50 Whole cell P. mirabilis. From the text:
In each bacterium, CutC was modified into its activated form by a cognate activating enzyme, CutD (protein EDU36696.1 for C. sporogenes; protein WP_004249185.1 for P. mirabilis). […] Trimethylamine may subsequently be converted by human enzymes such as flavin monooxygenase 3 to trimethylamine N-oxide, which might be associated with negative health consequences in humans.
A compound's ability to inhibit CutC from Proteus mirabilis and C. sporogenes from converting choline into trimethylamine was tested in cells as described. A BHI blood plate was inoculated with a frozen stock of Proteus mirabilis or Clostridium sporogenes under anaerobic conditions. A single colony was isolated from the plate and inoculated into 5 mL BHI supplemented with 1 mM choline under anaerobic conditions. The liquid cultures were grown overnight at 37° C.
To prepare each sample, 300 μL of the saturated culture was then inoculated into a 30 mL dilution blank under anaerobic conditions. 1 mM (trimethyl-d9)-choline and a sufficient amount of a compound to obtain a final concentration of 10 μM were added to the inoculated dilution blank. […] The mixture was incubated at 37° C. for 5 h. […] After centrifugation, the samples were analyzed by LCMS to determine the amount of d9-TMA produced.
Take `C#CC[N+](C)(C)CC(=C)Br` [Compound 217, (2-bromoprop-2-en-1-yl)dimethyl(prop-2-yn-1-yl)azanium]: the IC50 is 0.771 µM.

Consider `C=CC[N+](C)(C)CCO` [Compound 182, (2-hydroxyethyl)dimethyl(prop-2-en-1-yl)azanium Bromide], for which the IC50 was 3.15 µM.

For the compound `C#CC[N+](C)(C)CC#C` [Compound 165, N,N-dimethyl-N-(prop-2-yn-1-yl)prop-2-yn-1-aminium Bromide], the IC50 was 2.13 µM.

On to `CC1OC1C[N+](C)(C)C` (centres unmarked) [Compound 176, trimethyl[(3-methyloxiran-2-yl)methyl]azanium], for which the IC50 is at least 10 µM.

Turning to `C=C(CO)C[N+](C)(C)C` [Compound 167, (3-hydroxy-2-methylidenepropyl)trimethylazanium trifluoroacetate], the IC50 was at least 10 µM.

In the case of `C[N+](C)(CCO)Cc1ccccc1` [Compound 173, benzyl(2-hydroxyethyl)dimethylazanium], the IC50 was at least 10 µM.

Consider `C[N+]12CCC(CC1)[C@H](O)C2` [Compound 148, (1s,4s)-3-hydroxy-1-methylquinuclidin-1-ium], for which the IC50 was at least 10 µM.

With `C#CC[N+]1(CF)CCC[C@H]1CO` (stereo partly drawn) [Compound 205, (2S)-1-(fluoromethyl)-2-(hydroxymethyl)-1-(prop-2-yn-1-yl)pyrrolidin-1-ium Iodide], the IC50 was 8.3 µM.

As for `C#CC[N+](C)(C)CCC` [Compound 204, dimethyl(prop-2-yn-1-yl)propylazanium Iodide], the IC50 was 0.66 µM.

`C#CC[N+]1(CC#C)CCCN1` [Compound 201, 1,1-bis(prop-2-yn-1-yl)pyrazolidin-1-ium Bromide]: the IC50 was above 10 µM.

On to `C#CC[N+](C)(C)CC1(C(=O)OC)CC1` [Compound 190, N-((1-(methoxycarbonyl)cyclopropyl)methyl)-N,N-dimethylprop-2-yn-1-aminium Bromide], for which the half-maximal inhibitory concentration (IC50) is 1.28 µM.

`CCC[N+](C)(CF)CCO` (centres unmarked) [Compound 225]: the half-maximal inhibitory concentration (IC50) stood at 0.629 µM.

With `C[N+](CF)(CCO)C1CC1` (centres unmarked) [Compound 172, N-(fluoromethyl)-N-(2-hydroxyethyl)-N-methylcyclopropanaminium Iodide], the IC50 was at least 10 µM.

`C=C(C[N+](C)(C)CC(=C)C(=O)O)C(=O)O` [Compound 156, 2-carboxy-N-(2-carboxyallyl)-N,N-dimethylprop-2-en-1-aminium Bromide]: the IC50 was at least 10 µM.

For the compound `C#CC[N+](C)(C)CCO[C@@H]1O[C@H](CO)[C@@H](O)[C@H](O)[C@H]1O` [Compound 106, N,N-dimethyl-N-(2-(((3R,4S,5S,6R)-3,4,5-trihydroxy-6-(hydroxymethyl)tetrahydro-2H-pyran-2-yl)oxy)ethyl)prop-2-yn-1-aminium 2,2,2-trifluoroacetate], the IC50 was at least 10 µM.

On to `C#CC[N+](C)(CF)CCO` (centres unmarked) [Compound 153, N-(fluoromethyl)-N-(2-hydroxyethyl)-N-methylprop-2-yn-1-aminium Iodide], for which the IC50 stood at 0.02 µM.

For `C#CC[N+](C)(C)CC` [Compound 206, ethyldimethyl(prop-2-yn-1-yl)azanium Iodide], the IC50 came out at 0.069 µM.

As to `C#CC[N+](C)(C)CC(=C)C` [Compound 208, N,N,2-trimethyl-N-(prop-2-yn-1-yl)prop-2-en-1-aminium 2,2,2-trifluoroacetate], the IC50 was above 10 µM.

`C#CC[N+](C)(C)Cc1nnn[nH]1` [Compound 177, dimethyl(prop-2-yn-1-yl)[(1H-1,2,3,4-tetrazol-5-yl)methyl]azanium]: the IC50 was 7.57 µM.

Regarding `C#CC[N+](C)(C)CCCB(O)O` [Compound 222, {3-[dimethyl(prop-2-yn-1-yl)azaniumyl]propyl}boronic Acid], the IC50 was above 10 µM.

Turning to `C#CC[N+]1(CC(=O)O)CCCCC1` [Compound 160, 1-(carboxymethyl)-1-(prop-2-yn-1-yl)piperidin-1-ium bromide], the IC50 is at least 10 µM.

As to `C#CC[N+](C)(C)CC(=C)F` [Compound 209, 2-fluoro-N,N-dimethyl-N-(prop-2-yn-1-yl)prop-2-en-1-aminium 2,2,2-trifluoroacetate], the IC50 was found to be 6.8 µM.

In the case of `C#CC[N+](C)(C)C[C@H](C)C(=O)OC` [Compound 175, [(2S)-3-methoxy-2-methyl-3-oxopropyl]dimethyl(prop-2-yn-1-yl)azanium], the IC50 was 0.17 µM.

`C#CC[N+](C)(C)C[C@@H](C)C(=O)O` [Compound 162, (R)—N-(2-carboxypropyl)-N,N-dimethylprop-2-yn-1-aminium Chloride]: the IC50 was found to be 0.29 µM.

Take `C#CC[N+](C)(C)CCOCCO` [Compound 191, [2-(2-hydroxyethoxy)ethyl]dimethyl(prop-2-yn-1-yl)azanium]: the IC50 is 2.17 µM.

For the compound `C#CC[N+](C)(C)CCNC(=O)OC(C)(C)C` [Compound 192, tert-butyl N-{2-[dimethyl(prop-2-yn-1-yl)azaniumyl]ethyl}carbamate Bromide], the IC50 was above 10 µM.

With `C[N+](C)(CCO)C1COC1` [Compound 219, N-(2-hydroxyethyl)-N,N-dimethyloxetan-3-aminium trifluoroacetate], the IC50 is above 10 µM.

As to `C#CC[N+](C)(C)CC#N` [Compound 168, (cyanomethyl)dimethyl(prop-2-yn-1-yl)azanium Bromide], the IC50 stood at 0.87 µM.

With `COCC[N+](C)(C)CF` [Compound 228, (fluoromethyl)(2-methoxyethyl)dimethylazanium Iodide], the IC50 is above 10 µM.

In the case of `C[N+](C)(CCO)C(F)F` [Compound 193, (difluoromethyl)(2-hydroxyethyl)dimethylazanium], the IC50 is 1.38 µM.

Turning to `C#CC1CCC[N+]1(C)C` (centres unmarked) [Compound 226], the IC50 was 0.244 µM.

For `C#CC[N+](C)(C)CC(=O)NS(C)(=O)=O` [Compound 216, [(methanesulfonylcarbamoyl)methyl]dimethyl(prop-2-yn-1-yl)azanium], the IC50 was above 10 µM.

On to `CSCC[N+](C)(C)CF` [Compound 229, (fluoromethyl)dimethyl[2-(methylsulfanyl)ethyl]azanium], for which the IC50 was above 100 µM.

Turning to `C[N+](C)(C)CC#N` [Compound 169, (cyanomethyl)trimethylazanium Iodide], the IC50 is at least 10 µM.

`C#CC[N+](C)(C)CSC` [Compound 196, dimethyl[(methylsulfanyl)methyl](prop-2-yn-1-yl)azanium]: the IC50 came to 7.78 µM.

Turning to `C[N+](C)(CCO)C1CCC1` [Compound 199, N-(2-hydroxyethyl)-N,N-dimethylcyclobutanaminium], the IC50 was above 10 µM.

On to `C=C(C[N+](C)(C)C)C(=O)O` [Compound 155, 2-carboxy-N,N,N-trimethylprop-2-en-1-aminium Bromide], for which the IC50 worked out at 2.58 µM.

In the case of `C#CC[N+]1(CCO)CCCCC1` [Compound 154, 1-(2-hydroxyethyl)-1-(prop-2-yn-1-yl)piperidin-1-ium Bromide], the half-maximal inhibitory concentration (IC50) was at least 10 µM.

Consider `C#CC[N+](C)(C)CCN` [Compound 183, (2-aminoethyl)dimethyl(prop-2-yn-1-yl)azanium], for which the IC50 is above 10 µM.

Consider `C#CC[N+](C)(C)CF` [Compound 179, (fluoromethyl)dimethyl(prop-2-yn-1-yl)azanium Iodide], for which the IC50 worked out at 0.11 µM.

On to `C#CC[N+](C)(C)CC=C` [Compound 211, N,N-dimethyl-N-(prop-2-yn-1-yl)prop-2-en-1-aminium 2,2,2-trifluoroacetate], for which the IC50 turned out to be 0.211 µM.

Take `C=C(C[N+](C)(C)CC#N)C(=O)OC` [Compound 189, N-(cyanomethyl)-2-(methoxycarbonyl)-N,N-dimethylprop-2-en-1-aminium Bromide]: the IC50 was above 10 µM.

`C[N+]1(CF)CCCC[C@@H]1CO` (stereo partly drawn) [Compound 161, (2R)-1-(fluoromethyl)-2-(hydroxymethyl)-1-methylpiperidin-1-ium Iodide]: the IC50 is at least 10 µM.

For `C#CC[N+](C)(C)C[C@H](C)C(=O)O` [Compound 166, (S)—N-(2-carboxypropyl)-N,N-dimethylprop-2-yn-1-aminium Chloride], the IC50 was 1.26 µM.

As to `C#CC[N+]1(CF)CCCCC1` [Compound 164, 1-(fluoromethyl)-1-(prop-2-yn-1-yl)piperidin-1-ium Iodide], the IC50 was at least 10 µM.

Take `C[N+]1(C)CCOC(O)(C(F)(F)F)C1` (centres unmarked) [Compound 218, 2-hydroxy-4,4-dimethyl-2-(trifluoromethyl)morpholin-4-ium trifluoroacetate]: the IC50 is above 10 µM.

Staying with this test, now noted: read-out: Average IC50 Whole cell P. mirabilis; d9-TMA from 1 mM d9-choline, 5 h, 37° C.; value 10 given when no fit or % TMA remaining at 10 μM higher than 15%.
For `C[N+](C)(C)CCC[PH](=O)O` [Compound 147, 3-(hydroxyhydrophosphoryl)-N,N,N-trimethylpropan-1-aminium Chloridechloridechloridechloridechloride], the half-maximal inhibitory concentration (IC50) is at least 10 µM.

As for `C[N+](C)(CCO)CCCl` [Compound 198, (2-chloroethyl)(2-hydroxyethyl)dimethylazanium Iodide], the IC50 is above 10 µM.

`C[N+](C)(C)CCCl` [Compound 180]: the IC50 was above 10 µM.

As to `C#CC[N+](C)(C)CCP(=O)(OCC)OCC` [Compound 202, diethyl {2-[dimethyl(prop-2-yn-1-yl)azaniumyl]ethyl}phosphonate Bromide], the IC50 was determined as 0.242 µM.

Usually IC50 stands for the midpoint of a concentration-inhibition curve.
